# Experiments:
# [1] = system: human; set-up: method as in PMID 21141240; details: cited from earlier work
# [2] = system: mouse genome; test: Duplex sequencing, high-resolution mutational spectra and pLOGO of liver of NDMA-treated Mgmt−/− mice; type: in vivo
# Protocol: (§1) Most experiments utilized C57BL/6J gptΔ transgenic mice ([49],[50]), a gift from T. Nohmi. Some experiments used RaDR^R/R;gpt^g/g;Mgmt^−/− mice, which were created by crossing RaDR^R/R;gpt^g/gmice ([37]) with Mgmt^−/− mice ([51]). NDMA was synthesized and characterized as previously described ([52]) (Fig. S1). […] The first dose (3.5 mg/kg in 10 μl) was administered at 8 days of age, and the second dose (7 mg/kg in 20 μl) was administered at 15 days of age. Vehicle treated mice were administered equivalent volumes of saline. Mice were euthanized at ten weeks post-injection by CO2 inhalation. Both male and female mice were used in all experimental groups (n = 5) in all mouse experiments.
# (§2) To determine the identity of mutations and the sequence contexts in which they occur, we utilized a form of error-corrected sequencing called duplex sequencing (DS). Previously, we described how DS can be used directly on genomic samples derived from the gptΔ mouse to yield high-resolution mutational spectra in an unbiased (unselected) manner ([49]). Unlike the traditional gptΔ assay, DS evaluates the mutations throughout the entire 6382 bp transgenic region (which contains the gpt gene), without the need for a phenotypic selection. In the present work, 6.4 kb gpt-containing plasmids from gptΔ mouse livers and cell culture were isolated using a Miniprep Kit (Qiagen) following instructions of the manufacturer. Approximately 6 μg of plasmid DNA was diluted in 1× TE buffer-low EDTA, pH 8 (Thermo Scientific), transferred to a microTUBE AFA Fiber Pre-Slit Snap-Cap (Covaris) and sonicated using a Covaris E220 Focused-ultrasonicator. The following program was used to obtain 300–350 bp fragments: peak incident power = 140 W, duty factor = 10%, cycles per burst = 200, treatment time = 80 s, temperature = 4–7°C. DS libraries for gptΔ C57BL/6J mice and MEFs were prepared using the NEBNext Ultra II DNA Library Prep (E7103, NEB) or as described in Chawanthayatham et al. ([49]) and sequenced on a NextSeq500 or NovaSeq 6000 Illumina platform by using a 150 bp paired-end protocol (MIT BioMicro Center). DS libraries for the gptΔ mouse lungs and Mgmt^−/− mice were prepared using an input of 1 μg or 500 ng genomic DNA, respectively, using a TwinStrand Biosciences, Inc. Mouse Mutagenesis Kit according to the manufacturer's protocol. This kit uses probes that hybridize to 20 genomic regions, each 2.4 kb long. The genomic coordinates are provided in Supplementary Table S1. These probes were purposely selected to map in intronic and intergenic regions, to avoid selection bias. The libraries were sequenced on an Illumina NovaSeq 6000 DNA sequencer on an S4 flow cell using a 150 bp paired-end protocol (MIT BioMicro Center).
# (§3) For each sample, the two fastq files generated by the Illumina sequencer were converted into an unaligned bam file, using Picard Tools. The resulting bam file was processed using UnifiedConsensusMaker.py (version 3.0) as available from the Kennedy Lab at University of Washington (https://github.com/Kennedy-Lab-UW/Duplex-Sequencing). Briefly, this program queries the molecular tags on each read and assembles them into families (strands with the same tag). These are subsequently collapsed into single-strand consensus sequences (SSCS). Then, the software identifies the SSCS corresponding to the complementary strand; these are grouped together as a double-strand consensus sequence (DCS). Unpaired SSCSs were flagged and ignored for the rest of the analysis. Sequence information was accepted only when the information from the two complementary DNA strands was in perfect agreement. The DCSs (as fastq files) were subsequently aligned to the target region (6382 nt in the λ-EG10 genome) using Burrows-Wheeler aligner. Unmapped reads were filtered out. Finally, the properly aligned DCS reads were trimmed (bases 1–8 and 120–137) and collapsed into a pileup file using SamTools. […]
# [3] = system: mouse genome; test: Duplex sequencing, high-resolution mutational spectra and pLOGO of liver and lung of NDMA-treated wild-type mice; type: in vivo, gptΔ C57BL/6J mice
# Protocol: as §1, §2, §3
# [4] = system: C57BL/6J mice; set-up: method as in PMID 9500198; details: cited from earlier work
# [5] = C at -6 relative to G→A mutation, liver, WT mice
# [6] = C57BL/6J male mice, neonatal model
smiles,measurement,setting,value
"CN(C)N=O [NDMA, N-nitrosodimethylamine]",IARC classification,[1],probable (Group 2A) human carcinogen
same,pLOGO Frequency (%),"[2]; A at 1, liver, Mgmt−/− mice",31.4%
same,pLOGO Value (log-odds binomial probability),"[2]; A at 1, liver, Mgmt−/− mice",47.10
same,pLOGO Frequency (%),"[2]; A at 2, liver, Mgmt−/− mice",31.0%
same,pLOGO Value (log-odds binomial probability),"[2]; A at 2, liver, Mgmt−/− mice",26.02
same,pLOGO Frequency (%),"[2]; A at 3, liver, Mgmt−/− mice",29.4%
same,pLOGO Value (log-odds binomial probability),"[2]; A at 3, liver, Mgmt−/− mice",12.99
same,pLOGO Frequency (%),"[2]; A at 5, liver, Mgmt−/− mice",28.3%
same,pLOGO Value (log-odds binomial probability),"[2]; A at 5, liver, Mgmt−/− mice",3.94
same,pLOGO Frequency (%),"[2]; A at -1, liver, Mgmt−/− mice",42.5%
same,pLOGO Value (log-odds binomial probability),"[2]; A at -1, liver, Mgmt−/− mice",256.46
same,pLOGO Frequency (%),"[2]; A at -2, liver, Mgmt−/− mice",32.8%
same,pLOGO Value (log-odds binomial probability),"[2]; A at -2, liver, Mgmt−/− mice",29.44
same,pLOGO Frequency (%),"[2]; A at -3, liver, Mgmt−/− mice",29.2%
same,pLOGO Value (log-odds binomial probability),"[2]; A at -3, liver, Mgmt−/− mice",4.17
same,pLOGO Frequency (%),"[2]; C at 2, liver, Mgmt−/− mice",24.5%
same,pLOGO Value (log-odds binomial probability),"[2]; C at 2, liver, Mgmt−/− mice",22.44
same,pLOGO Frequency (%),"[2]; G at 4, liver, Mgmt−/− mice",23.1%
same,pLOGO Value (log-odds binomial probability),"[2]; G at 4, liver, Mgmt−/− mice",13.22
same,pLOGO Frequency (%),"[2]; G at 5, liver, Mgmt−/− mice",22.8%
same,pLOGO Value (log-odds binomial probability),"[2]; G at 5, liver, Mgmt−/− mice",3.76
same,pLOGO Frequency (%),"[2]; G at 6, liver, Mgmt−/− mice",24.8%
same,pLOGO Value (log-odds binomial probability),"[2]; G at 6, liver, Mgmt−/− mice",20.10
same,pLOGO Frequency (%),"[2]; G at 7, liver, Mgmt−/− mice",24.2%
same,pLOGO Value (log-odds binomial probability),"[2]; G at 7, liver, Mgmt−/− mice",4.88
same,pLOGO Frequency (%),"[2]; G at -1, liver, Mgmt−/− mice",41.6%
same,pLOGO Value (log-odds binomial probability),"[2]; G at -1, liver, Mgmt−/− mice",324
same,pLOGO Frequency (%),"[2]; G at -2, liver, Mgmt−/− mice",24.3%
same,pLOGO Value (log-odds binomial probability),"[2]; G at -2, liver, Mgmt−/− mice",23.51
same,pLOGO Frequency (%),"[2]; G at -3, liver, Mgmt−/− mice",22.9%
same,pLOGO Value (log-odds binomial probability),"[2]; G at -3, liver, Mgmt−/− mice",4.27
same,pLOGO Frequency (%),"[2]; G at -4, liver, Mgmt−/− mice",22.6%
same,pLOGO Value (log-odds binomial probability),"[2]; G at -4, liver, Mgmt−/− mice",5.86
same,pLOGO Frequency (%),"[2]; G at -5, liver, Mgmt−/− mice",22.8%
same,pLOGO Value (log-odds binomial probability),"[2]; G at -5, liver, Mgmt−/− mice",4.67
same,pLOGO Frequency (%),"[2]; G at -6, liver, Mgmt−/− mice",23.9%
same,pLOGO Value (log-odds binomial probability),"[2]; G at -6, liver, Mgmt−/− mice",4.72
same,"AT→GC mutations, proportion of mutations",[2]; Mgmt−/− mice,1.7%
same,pLOGO Frequency (%),"[2]; T at -2, liver, Mgmt−/− mice",24.7%
same,pLOGO Value (log-odds binomial probability),"[2]; T at -2, liver, Mgmt−/− mice",9.33
same,sequence context of GC→AT mutations,[2]; liver of Mgmt−/− mice,5’-PuGN-3’
same,dominant single-base substitution,"[2]; liver of Mgmt−/− mice, 10 weeks post NDMA",GC→AT mutations
same,cosine similarity of mutational patterns in Mgmt−/− and WT mice,"[2]; liver, baseline-corrected, normalized spectra",0.98
same,pLOGO Frequency (%),"[3]; A at 1, lung, WT mice",32.2%
same,pLOGO Value (log-odds binomial probability),"[3]; A at 1, lung, WT mice",5.89
same,pLOGO Frequency (%),"[3]; A at 2, lung, WT mice",32.0%
same,pLOGO Value (log-odds binomial probability),"[3]; A at 2, lung, WT mice",4.51
same,pLOGO Frequency (%),"[3]; A at 3, liver, WT mice",28.4%
same,pLOGO Value (log-odds binomial probability),"[3]; A at 3, liver, WT mice",4.00
same,pLOGO Frequency (%),"[3]; A at -1, liver, WT mice",30.9%
same,pLOGO Value (log-odds binomial probability),"[3]; A at -1, liver, WT mice",52.74
same,pLOGO Frequency (%),"[3]; A at -1, lung, WT mice",45.9%
same,pLOGO Value (log-odds binomial probability),"[3]; A at -1, lung, WT mice",37.22
same,pLOGO Frequency (%),"[3]; A at -2, lung, WT mice",34.3%
same,pLOGO Value (log-odds binomial probability),"[3]; A at -2, lung, WT mice",6.29
same,pLOGO Frequency (%),"[3]; C at 1, liver, WT mice",38.4%
same,pLOGO Value (log-odds binomial probability),"[3]; C at 1, liver, WT mice",27.34
same,pLOGO Frequency (%),"[3]; C at 4, liver, WT mice",26.0%
same,pLOGO Value (log-odds binomial probability),"[3]; C at 4, liver, WT mice",6.07
same,pLOGO Frequency (%),"[3]; C at -3, liver, WT mice",31.4%
same,pLOGO Value (log-odds binomial probability),"[3]; C at -3, liver, WT mice",22.96
same,pLOGO Frequency (%),"[3]; C at -5, liver, WT mice",26.7%
same,pLOGO Value (log-odds binomial probability),"[3]; C at -5, liver, WT mice",4.79
same,pLOGO Frequency (%),[3]; [5],28.0%
same,pLOGO Value (log-odds binomial probability),[3]; [5],3.68
same,pLOGO Frequency (%),"[3]; G at -1, liver, WT mice",47.4%
same,pLOGO Value (log-odds binomial probability),"[3]; G at -1, liver, WT mice",193.23
same,pLOGO Frequency (%),"[3]; G at -1, lung, WT mice",39.2%
same,pLOGO Value (log-odds binomial probability),"[3]; G at -1, lung, WT mice",64.57
same,pLOGO Frequency (%),"[3]; T at 1, liver, WT mice",23.8%
same,pLOGO Value (log-odds binomial probability),"[3]; T at 1, liver, WT mice",4.97
same,pLOGO Frequency (%),"[3]; T at 1, lung, WT mice",29.1%
same,pLOGO Value (log-odds binomial probability),"[3]; T at 1, lung, WT mice",10.31
same,sequence context dependency of GC→AT mutations,"[3]; WT mice, Pu = purine, N = any base",5’-PuGN-3’
same,"AT→GC mutations, proportion of total number of mutations","[3]; WT mice, after background subtraction",4.6%
same,dominant mutation type of mutational spectrum,"[3]; liver and lung of WT mice, 10 weeks post NDMA",GC→AT transition mutations
same,incidence of hepatic tumors,[4]; [6],~80%
same,incidence of lung tumors,[4]; [6],7%
same,maximum tolerated dose,"[4]; total dose, i.p., neonatal mice",10.5 mg/kg

# Source: PMC10041537, “Molecular origins of mutational spectra produced by the environmental carcinogen N-nitrosodimethylamine and SN1 chemotherapeutic agents” (NAR Cancer, 2023)
